What all share (assay): MIC by broth microdilution (NCCLS M7-A4)
Common to all, as to type: cell-based
Background: Broth dilution looks for growth in wells or tubes with falling amounts of substance.

The test system of one test is S. aureus A798. Particulars: Staphylococcus aureus, cation-adjusted Mueller-Hinton Broth, pH 7.2-7.3. On the procedure: (§1) These assays have been performed following the description given in “Methods for dilution Antimicrobial Susceptibility Tests for Bacteria that Grow Aerobically, 4th ed.; Approved standard: NCCLS Document M7-A4; National Committee for Clinical Laboratory Standards Villanova, Pa., USA, 1997”. Minimal inhibitory concentrations (MICs; mg/l) were determined in cation-adjusted Mueller-Hinton Broth (BBL) by a microdilution method following NCCLS guidelines (National Committee for Clinical Laboratory Standards. Methods for Dilution Antimicrobial Susceptibility). The pH of the test medium was 7.2-7.3. All the above Examples were tested against several Gram positive and Gram negative bacteria.

For a further test, the system named is M catarrhalis A894. Particulars: cation-adjusted Mueller-Hinton Broth, pH 7.2-7.3. On the procedure:
as §1

The next test deals with S Pneunoniae 49619. The conditions noted are these: cation-adjusted Mueller-Hinton Broth, pH 7.2-7.3. As for the experimental part: as §1

The structures appear in SMILES notation. Converted amounts (≈) assume the structure as drawn. Where only a bound is given, the exact number is not on record here.

Usually MIC stands for the smallest concentration in the dilution series that meets the test's criterion for growth inhibition. Lower therefore signals greater potency.

In the case of `CC(=O)NC[C@H]1CN(c2ccc(OC[C@]3(O)C[C@H]4COc5c(c(F)cc6c(=O)c(C(=O)O)cn(C7CC7)c56)N4C3)c(F)c2)C(=O)O1` [Example 2, (13S,16S)-16-{4-[(5S)-5-(acetylamino-methyl)-2-oxo-oxazolidin-3-yl]-2-fluoro-phenoxymethyl}-1-cyclopropyl-7-fluoro-16-hydroxy-4-oxo-1,4,13,15,16,17-hexahydro-12H-11-oxa-1,14-diaza-cyclopenta[a]phenanthrene-3-carboxylic acid], the MIC against S. aureus A798, against M catarrhalis A894 and against S Pneunoniae 49619 was at most 0.063 µg/mL in each case.
In the case of `O=C(O)c1cn(C2CC2)c2c3c(c(F)cc2c1=O)N1C[C@](O)(COc2ccc(N4C[C@H](Cn5ccnn5)OC4=O)cc2F)C[C@H]1CO3` [Example 1, (13S,16S)-1-cyclopropyl-7-fluoro-16-[2-fluoro-4-((5R)-2-oxo-5-[1,2,3]triazol-1-ylmethyl-oxazolidin-3-yl)-phenoxymethyl]-16-hydroxy-4-oxo-1,4,13,15,16,17-hexahydro-12H-11-oxa-1,14-diaza-cyclopenta[a]phenanthrene-3-carboxylic acid], the MIC in the test on S. aureus A798, against M catarrhalis A894 and against S Pneunoniae 49619 was at most 0.063 µg/mL throughout.
Consider `O=C(O)c1cn(C2CC2)c2c3c(c(F)cc2c1=O)N1C[C@](O)(COc2ccc(N4C[C@H](Cn5ccnn5)OC4=O)cc2F)C[C@@H]1CO3` [Example 4, (13R,16S)-1-cyclopropyl-7-fluoro-16-[2-fluoro-4-((5R)-2-oxo-5-[1,2,3]triazol-1-ylmethyl-oxazolidin-3-yl)-phenoxymethyl]-16-hydroxy-4-oxo-1,4,13,15,16,17-hexahydro-12H-11-oxa-1,14-diaza-cyclopenta[a]phenanthrene-3-carboxylic acid], for which the MIC in the test on S. aureus A798 was at most 0.063 µg/mL; against M catarrhalis A894, 0.25 µg/mL (≈ 0.384 µM); in the test on S Pneunoniae 49619, at most 0.063 µg/mL.

The values are drawn from US20100222302A1, “Novel Antibacterial Compounds” (priority 2005, published 2010).
